# In ChEMBL document CHEMBL4396867, “Identification of 5-Substituted 2-Acylaminothiazoles That Activate Tat-Mediated Transcription in HIV-1 Latency Models” (J Med Chem, 2019):
# Legend:
# [1] = Aqueous solubility of the compound in phosphate buffer at pH 6.5 by nephelometry; type: physicochemical
# [2] = Aqueous solubility of the compound in 0.01M HCl at pH 2 by nephelometry; type: physicochemical
Compound,solubility kinetic [1] [µM],solubility kinetic [2] [µM]
CC(C)c1cnc(NC(=O)CCCOc2ccccc2)s1,< 1.2,< 1.2
N#Cc1cnc(NC(=O)CCCOc2cccc(C(F)(F)F)c2)s1,< 1.6,< 1.6
O=C(CCCOc1cccc(C(F)(F)F)c1)Nc1ncc(C(F)(F)F)s1,< 1.6,< 1.6
N#Cc1cnc(NC(=O)CCCOc2ccccc2)s1,1.1 to 2.2,1.1 to 2.2
O=C(CCCOc1ccccc1)Nc1ncc(Cl)s1,< 1.2,< 1.2

# Next, values leading:
solubility kinetic [1] [µM],solubility kinetic [2] [µM],Compound
< 1.1,< 1.1,Cc1cnc(NC(=O)CCCOc2cccc(Cl)c2)s1
3.1 to 6.3,1.6 to 3.1,Cc1cnc(NC(=O)CCCOc2cncc(Cl)c2)s1
< 1.6,< 1.6,N#Cc1cnc(NC(=O)CCCOc2cccc(Cl)c2)s1
< 1.6,1.6 to 3.1,Cc1cnc(NC(=O)NCCOc2ccc(Cl)c(C)c2)s1
< 1.2,< 1.2,Cc1cnc(NC(=O)CCCOc2cccc(Cl)n2)s1
< 1.1,< 1.1,Cc1cnc(NC(=O)CCCOc2cccc(C(F)(F)F)c2)s1
< 1.1,< 1.1,Cc1cnc(NC(=O)CCCOc2cccc(C#N)c2)s1
< 1.1,1.1 to 2.3,Cc1cnc(NC(=O)CCCOc2ccccc2)s1
